Data set [1] in a line: Ratio of drug uptake in brain to plasma in rat at 5 mg/kg, po. Format: ADME, organism-based. Conditions: read-out: BPR. More on the design: dose 5 mg/kg, route oral.
A short description of data set [2]: Aqueous solubility at pH 7.4. Format: physicochemical. Conditions: buffer.
For data set [3], the target named is 5-hydroxytryptamine receptor 6 (Rattus norvegicus, UniProt P31388). As to the kind of experiment: Displacement of [3H]LSD from rat recombinant 5HT6 receptor.
For data set [4], the target named is Sodium-dependent dopamine transporter (Homo sapiens, UniProt Q01959). As to the kind of experiment: Inhibition of DA transporter.
Data set [5] can be described thus: Plasma protein binding in rat. To be noted: read-out: PPB (converted). Format: ADME, cell-free.
Data set [6] relates to Rattus norvegicus. Description: Antiamnesic activity in rat assessed as decrease in ratio of investigation duration of familiar juvenile rat at 0.3 mg/kg, ip administered 120 mins prior to test by social recognition test. Format: functional. More on the design: scale not given: the % may be the effect or the level left. To be noted: route intraperitoneal.
Data set [7] addresses Muscarinic acetylcholine receptor M1 (Homo sapiens, UniProt P11229). Description: Inhibition of M1 receptor.
Data set [8] can be described thus: Apparent permeability from apical to basal side of MDCK2-MDR1. Format: ADME, cell-based, Canis lupus familiaris, MDCK-II. Conditions: dog, MDCK-MDR1.
Data set [9] has as its target Voltage-gated inwardly rectifying potassium channel KCNH2 (Homo sapiens, UniProt Q12809). As to the kind of experiment: Inhibition of human ERG by patch clamp assay. For orientation: The patch-clamp technique gives a direct electrical read-out from membranes.
The target of data set [10] is Muscarinic acetylcholine receptor M4 (Homo sapiens, UniProt P08173). Description: Inhibition of M4 receptor.
The nature of data set [11]: Half life in dog liver microsomes. Format: ADME, Canis lupus familiaris, Microsome. On the technique in general: Liver microsomes are a subcellular fraction often used to study metabolism.
For data set [12], the target named is Sodium-dependent noradrenaline transporter (Homo sapiens, UniProt P23975). As to the kind of experiment: Inhibition of NA transporter.
For data set [13], the target named is 5-hydroxytryptamine receptor 2C (Homo sapiens, UniProt P28335). As to the kind of experiment: Inhibition of human 5HT2C.
Data set [14] concerns Rattus norvegicus. As to the kind of experiment: Half life in rat at 1 mg/kg, iv. Format: ADME, organism-based. On the set-up: dose 1 mg/kg, route intravenous. To be noted: in vivo.
A short description of data set [15]: Oral bioavailability in rat at 5 mg/kg at 24 hrs. To be noted: in vivo. Format: ADME, organism-based.
The nature of data set [16]: Half life in mouse liver microsomes. Format: ADME, Microsome.
Another data set concerns the target Cytochrome P450 2C9 (Homo sapiens, UniProt P11712). As to the kind of experiment: Inhibition of CYP 2C9. Format: ADME.
In data set [17] the target is 5-hydroxytryptamine receptor 2A (Homo sapiens, UniProt P28223). As to the kind of experiment: Inhibition of human 5HT2A.
The target in another data set is Cytochrome P450 1A2 (Homo sapiens, UniProt P05177). Description: Inhibition of CYP 1A2. Format: ADME.
A short description of data set [18]: Inhibition of calcium channel-L type.
In data set [19] the target is Muscarinic acetylcholine receptor M2 (Homo sapiens, UniProt P08172). Description: Inhibition of M2 receptor.
In data set [20] the target is T1, 5-hydroxytryptamine receptor 6 (Homo sapiens, UniProt P50406). Description: Displacement of [3H]LSD from human recombinant 5HT6 receptor. (Loss of bound radioactivity is the signal in a displacement assay; it reports binding, not function.)
In data set [21] the target is 5-hydroxytryptamine receptor 2B (Homo sapiens, UniProt P41595). Description: Inhibition of human 5HT2B.
A short description of data set [22]: Half life in human liver microsomes. Format: ADME, Microsome.
Data set [23] in a line: Plasma protein binding in human. Format: ADME, cell-free. Conditions: read-out: PPB (converted).
Another data set has as its target Cytochrome P450 2D6 (Homo sapiens, UniProt P10635). Description: Inhibition of CYP 2D6. Format: ADME.
The test system of data set [24] is Rattus norvegicus. As to the kind of experiment: Volume of distribution in rat at 1 mg/kg, iv. On the set-up: dose 1 mg/kg, route intravenous. To be noted: in vivo. Format: ADME, organism-based.
Data set [25] in a line: Aqueous solubility at pH 2. Format: physicochemical. To be noted: buffer.
In data set [26] the test system is Rattus norvegicus. Description: Antiamnesic activity in rat assessed as decrease in ratio of investigation duration of familiar juvenile rat at 3 mg/kg, ip administered 120 mins prior to test by social recognition test. Format: functional. On the set-up: scale not given: the % may be the effect or the level left. To be noted: route intraperitoneal.
A further data set concerns the target Cytochrome P450 2C19 (Homo sapiens, UniProt P33261). As to the kind of experiment: Inhibition of CYP 2C19. Format: ADME.
In data set [27] the target is T1, 5-hydroxytryptamine receptor 6. Description: Antagonist activity at human 5HT6 receptor expressed in human astrocytoma cells assessed as inhibition of cAMP production. Format: functional, cell-based.
Another data set deals with Cytochrome P450 3A4 (Homo sapiens, UniProt P08684). Description: Inhibition of CYP 3A4. Format: ADME.
Data set [28] deals with Rattus norvegicus. As to the kind of experiment: Antiamnesic activity in rat assessed as decrease in ratio of investigation duration of familiar juvenile rat at 1 mg/kg, ip administered 120 mins prior to test by social recognition test. Format: functional. On the set-up: scale not given: the % may be the effect or the level left. Conditions: route intraperitoneal.
A short description of data set [29]: Half life in rat liver microsomes. Format: ADME, Microsome.
The nature of data set [30]: Oral bioavailability in rat at 5 mg/kg. To be noted: in vivo. Format: ADME, organism-based.
In data set [31] the test system is Rattus norvegicus. As to the kind of experiment: Ratio of drug uptake in brain to plasma in rat at 5 mg/kg, po.

Bounds are passed on as bounds.

T1 sequence (P50406 whole entry): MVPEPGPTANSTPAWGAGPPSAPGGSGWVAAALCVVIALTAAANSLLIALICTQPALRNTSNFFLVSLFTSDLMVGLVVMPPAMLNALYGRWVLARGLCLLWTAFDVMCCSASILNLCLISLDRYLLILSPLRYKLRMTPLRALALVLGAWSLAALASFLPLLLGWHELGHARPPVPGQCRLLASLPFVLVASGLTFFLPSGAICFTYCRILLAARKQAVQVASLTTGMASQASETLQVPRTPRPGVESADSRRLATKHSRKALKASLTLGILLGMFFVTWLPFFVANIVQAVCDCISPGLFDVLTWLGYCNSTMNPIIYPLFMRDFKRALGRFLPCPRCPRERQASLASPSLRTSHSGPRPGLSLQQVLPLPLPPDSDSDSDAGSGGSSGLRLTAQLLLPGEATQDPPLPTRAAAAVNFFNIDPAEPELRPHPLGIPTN
Chain of 5-hydroxytryptamine receptor 6 (Rattus norvegicus, UniProt P31388) (P31388 whole entry): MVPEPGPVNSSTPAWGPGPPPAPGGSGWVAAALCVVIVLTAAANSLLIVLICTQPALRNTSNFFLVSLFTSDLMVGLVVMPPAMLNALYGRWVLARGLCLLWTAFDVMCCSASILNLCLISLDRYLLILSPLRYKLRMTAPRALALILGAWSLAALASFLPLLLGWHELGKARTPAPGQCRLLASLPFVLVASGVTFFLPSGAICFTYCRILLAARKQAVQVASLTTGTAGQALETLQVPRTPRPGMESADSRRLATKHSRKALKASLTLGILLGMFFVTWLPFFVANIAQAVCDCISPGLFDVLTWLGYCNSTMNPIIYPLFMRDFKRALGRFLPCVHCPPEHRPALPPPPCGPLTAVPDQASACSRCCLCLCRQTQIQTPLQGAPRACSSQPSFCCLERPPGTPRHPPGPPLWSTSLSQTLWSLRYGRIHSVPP
Chain of Muscarinic acetylcholine receptor M1 (P11229 whole entry): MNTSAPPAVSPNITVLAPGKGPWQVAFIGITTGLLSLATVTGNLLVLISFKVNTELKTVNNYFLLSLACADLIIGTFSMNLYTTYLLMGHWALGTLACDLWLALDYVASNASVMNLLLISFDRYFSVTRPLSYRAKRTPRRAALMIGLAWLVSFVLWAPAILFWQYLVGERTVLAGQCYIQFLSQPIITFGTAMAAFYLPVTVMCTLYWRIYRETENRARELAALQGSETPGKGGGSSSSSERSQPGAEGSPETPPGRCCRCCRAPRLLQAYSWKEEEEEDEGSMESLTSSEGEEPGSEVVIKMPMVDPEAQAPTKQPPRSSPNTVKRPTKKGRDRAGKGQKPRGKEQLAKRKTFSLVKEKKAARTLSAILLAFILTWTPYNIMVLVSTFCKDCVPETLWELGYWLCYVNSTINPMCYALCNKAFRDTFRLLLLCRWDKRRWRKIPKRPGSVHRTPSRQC
Chain of Muscarinic acetylcholine receptor M2 (P08172 whole entry): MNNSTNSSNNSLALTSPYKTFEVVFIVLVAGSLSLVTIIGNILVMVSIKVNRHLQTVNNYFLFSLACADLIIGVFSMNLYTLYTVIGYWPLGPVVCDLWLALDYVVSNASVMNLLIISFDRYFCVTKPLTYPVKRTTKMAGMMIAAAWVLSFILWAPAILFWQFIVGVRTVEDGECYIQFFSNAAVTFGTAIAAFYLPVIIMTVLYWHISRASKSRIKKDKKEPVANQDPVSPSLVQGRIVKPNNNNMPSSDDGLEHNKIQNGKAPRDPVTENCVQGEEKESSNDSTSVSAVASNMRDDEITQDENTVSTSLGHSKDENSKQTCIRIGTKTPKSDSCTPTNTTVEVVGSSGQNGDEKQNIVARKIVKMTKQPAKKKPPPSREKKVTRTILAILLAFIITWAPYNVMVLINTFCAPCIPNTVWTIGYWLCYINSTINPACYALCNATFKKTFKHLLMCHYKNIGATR
Chain of Sodium-dependent noradrenaline transporter (P23975 whole entry): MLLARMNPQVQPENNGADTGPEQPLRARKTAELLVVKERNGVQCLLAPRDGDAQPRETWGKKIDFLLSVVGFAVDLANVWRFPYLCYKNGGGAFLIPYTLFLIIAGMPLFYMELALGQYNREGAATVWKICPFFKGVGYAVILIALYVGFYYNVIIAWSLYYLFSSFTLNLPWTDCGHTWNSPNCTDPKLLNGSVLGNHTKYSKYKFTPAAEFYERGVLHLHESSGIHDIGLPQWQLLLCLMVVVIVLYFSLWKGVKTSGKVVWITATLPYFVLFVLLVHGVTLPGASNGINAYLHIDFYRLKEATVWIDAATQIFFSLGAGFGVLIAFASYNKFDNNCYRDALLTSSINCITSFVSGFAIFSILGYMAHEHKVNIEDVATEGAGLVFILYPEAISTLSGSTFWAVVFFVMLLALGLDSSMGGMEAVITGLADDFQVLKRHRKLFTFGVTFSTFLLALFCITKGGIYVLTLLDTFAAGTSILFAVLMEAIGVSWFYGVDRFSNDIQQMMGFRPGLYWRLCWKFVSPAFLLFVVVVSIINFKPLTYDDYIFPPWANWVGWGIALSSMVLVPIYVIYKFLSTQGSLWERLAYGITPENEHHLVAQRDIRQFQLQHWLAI
Chain of 5-hydroxytryptamine receptor 2A (P28223 whole entry): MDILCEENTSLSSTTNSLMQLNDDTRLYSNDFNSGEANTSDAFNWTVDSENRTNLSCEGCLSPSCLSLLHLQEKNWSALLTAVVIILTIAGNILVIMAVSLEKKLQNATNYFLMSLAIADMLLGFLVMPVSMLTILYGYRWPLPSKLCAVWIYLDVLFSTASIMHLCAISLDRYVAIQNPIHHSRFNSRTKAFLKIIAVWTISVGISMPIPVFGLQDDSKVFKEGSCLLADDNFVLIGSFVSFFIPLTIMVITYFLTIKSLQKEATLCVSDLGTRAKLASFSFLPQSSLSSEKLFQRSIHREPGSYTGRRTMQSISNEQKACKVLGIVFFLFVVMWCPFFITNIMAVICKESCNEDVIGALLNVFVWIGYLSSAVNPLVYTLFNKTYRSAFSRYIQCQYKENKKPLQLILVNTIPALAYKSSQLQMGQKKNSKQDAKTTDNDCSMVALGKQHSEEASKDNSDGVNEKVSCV
Chain of Muscarinic acetylcholine receptor M4 (P08173 whole entry): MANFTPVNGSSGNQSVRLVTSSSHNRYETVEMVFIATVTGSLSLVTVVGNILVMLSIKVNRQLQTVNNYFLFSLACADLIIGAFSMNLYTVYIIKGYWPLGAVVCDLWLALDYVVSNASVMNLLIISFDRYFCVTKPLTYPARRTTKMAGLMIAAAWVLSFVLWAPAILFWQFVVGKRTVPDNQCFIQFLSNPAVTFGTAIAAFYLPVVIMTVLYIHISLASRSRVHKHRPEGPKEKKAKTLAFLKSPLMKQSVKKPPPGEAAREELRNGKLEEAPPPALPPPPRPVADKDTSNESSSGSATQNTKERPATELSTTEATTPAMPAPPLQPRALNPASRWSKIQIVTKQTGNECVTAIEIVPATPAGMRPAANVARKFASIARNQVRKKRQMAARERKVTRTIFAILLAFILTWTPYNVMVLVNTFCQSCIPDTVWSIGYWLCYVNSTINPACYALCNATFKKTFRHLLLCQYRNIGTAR
Chain of Voltage-gated inwardly rectifying potassium channel KCNH2 (Q12809 whole entry): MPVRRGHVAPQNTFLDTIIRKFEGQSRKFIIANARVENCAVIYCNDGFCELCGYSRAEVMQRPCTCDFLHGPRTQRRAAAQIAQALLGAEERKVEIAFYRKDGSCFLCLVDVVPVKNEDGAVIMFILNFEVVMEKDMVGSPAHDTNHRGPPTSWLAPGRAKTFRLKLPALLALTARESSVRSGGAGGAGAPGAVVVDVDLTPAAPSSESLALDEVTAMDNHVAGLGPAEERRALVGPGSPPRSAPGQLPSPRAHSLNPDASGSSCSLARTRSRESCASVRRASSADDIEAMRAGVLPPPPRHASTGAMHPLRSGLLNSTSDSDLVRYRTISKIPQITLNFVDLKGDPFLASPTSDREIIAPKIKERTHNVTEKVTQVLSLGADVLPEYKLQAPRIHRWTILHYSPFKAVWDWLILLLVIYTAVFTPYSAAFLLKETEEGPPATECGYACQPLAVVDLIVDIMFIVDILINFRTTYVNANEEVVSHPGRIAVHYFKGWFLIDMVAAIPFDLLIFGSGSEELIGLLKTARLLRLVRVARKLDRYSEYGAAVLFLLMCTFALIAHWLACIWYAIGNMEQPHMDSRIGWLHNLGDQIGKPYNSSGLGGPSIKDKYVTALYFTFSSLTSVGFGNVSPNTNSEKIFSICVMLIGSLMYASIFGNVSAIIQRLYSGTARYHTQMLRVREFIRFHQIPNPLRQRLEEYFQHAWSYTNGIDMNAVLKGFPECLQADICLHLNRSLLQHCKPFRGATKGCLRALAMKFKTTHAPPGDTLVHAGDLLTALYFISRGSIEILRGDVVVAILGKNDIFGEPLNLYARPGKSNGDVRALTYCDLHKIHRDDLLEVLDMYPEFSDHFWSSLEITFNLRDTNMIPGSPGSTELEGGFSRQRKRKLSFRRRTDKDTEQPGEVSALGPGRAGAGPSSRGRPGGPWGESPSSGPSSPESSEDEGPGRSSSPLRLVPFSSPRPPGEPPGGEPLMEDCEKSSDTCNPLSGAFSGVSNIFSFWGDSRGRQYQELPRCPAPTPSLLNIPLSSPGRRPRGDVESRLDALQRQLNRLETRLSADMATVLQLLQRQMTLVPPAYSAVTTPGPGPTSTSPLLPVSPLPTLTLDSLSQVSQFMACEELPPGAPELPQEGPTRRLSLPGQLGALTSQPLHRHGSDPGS
Chain of 5-hydroxytryptamine receptor 2B (P41595 whole entry): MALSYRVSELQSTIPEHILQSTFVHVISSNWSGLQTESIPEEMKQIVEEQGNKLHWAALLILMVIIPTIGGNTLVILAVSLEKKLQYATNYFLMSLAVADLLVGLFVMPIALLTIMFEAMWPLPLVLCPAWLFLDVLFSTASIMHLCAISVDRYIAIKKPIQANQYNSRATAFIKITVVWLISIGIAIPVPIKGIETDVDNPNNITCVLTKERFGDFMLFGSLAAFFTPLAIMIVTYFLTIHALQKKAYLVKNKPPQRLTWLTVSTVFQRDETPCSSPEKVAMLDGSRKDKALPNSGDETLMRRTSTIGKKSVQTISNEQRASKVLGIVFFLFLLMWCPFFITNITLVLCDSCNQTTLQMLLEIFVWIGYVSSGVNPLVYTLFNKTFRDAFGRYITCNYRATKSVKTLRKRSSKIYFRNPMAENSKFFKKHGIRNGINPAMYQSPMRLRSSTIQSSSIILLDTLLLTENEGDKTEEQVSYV

Usually solubility stands for the dissolved amount per volume that the medium holds. For orientation: Ki means the dissociation constant of the complex between target and ligand, obtained from inhibition or displacement. As usually defined, the IC50 is the concentration that gives 50% inhibition. In general, Papp A→B refers to how fast a substance crosses the layer from the apical side. A word on the half-life: it is the time in which the quantity being followed falls by half. What is called bioavailability is the share of a dose that reaches the circulation, judged against a reference dose that is usually intravenous. One may read the Vd as the apparent volume that relates the amount in the body to the concentration in plasma or blood. Take `COc1cc(OC(C)C)cc(S(=O)(=O)c2ccc3c(c2)O[C@H]2CNCC[C@@H]32)c1.Cl` (single isomer, unassigned; enantiomer 1): the Kp in data set [1] worked out at 2.76. In addition, the solubility in data set [2] and in data set [25] was above 130 µg/mL each time. In addition, the Ki in data set [3] worked out at 0.027 µM; in [13], 19 µM; in data set [17], 3.7 µM; in data set [20] it was 0.004 µM; in data set [21] it was 6.2 µM. Also, the IC50 in [4] is 6.3 µM; in [7], 2.2 µM; in data set [9] it was 3.3 µM; in data set [10], 4.8 µM; in [12], 4.4 µM; against Cytochrome P450 2C9, above 30 µM. Moreover, the IC50 against Cytochrome P450 1A2 is above 30 µM; in data set [18], 3.9 µM; in [19], 7.9 µM; on Cytochrome P450 2D6 it was above 30 µM; against Cytochrome P450 2C19, above 22.9 µM; in [27], 0.067 µM. Also, on Cytochrome P450 3A4, the IC50 was above 5.9 µM. Further, the fraction unbound in [5] is 0.027; in [23], 0.046. For the same compound, the Activity with Rattus norvegicus [6] worked out at 22%; in the data set with Rattus norvegicus [26], 35%; with Rattus norvegicus [28], 21%. Moreover, in data set [8], the Papp A→B stood at 2.88 ×10⁻⁶ cm/s. The half-life in data set [11], in data set [16], in [22] and in [29] was above 40 min each time. The t1/2 in the data set with Rattus norvegicus [14] amounted to 150 min. In data set [15], this compound registered a bioavailability of 39%. In addition, the Vd in the data set on Rattus norvegicus [24] is 4.3 L/kg.
On to `COc1cc(OC(C)C)cc(S(=O)(=O)c2ccc3c(c2)O[C@H]2CNCC[C@@H]32)c1.Cl` (single isomer, unassigned; enantiomer 2), for which the bioavailability in [30] stood at 11%. In addition, the Ki is 0.055 µM in data set [3] and 0.012 µM in data set [20]. Further, the BPR in the data set with Rattus norvegicus [31] came to 2.29. The compound also came in with a t1/2 with Rattus norvegicus [14] of 24 min. In the data set on Rattus norvegicus [24], this compound had a Vd of 1 L/kg. Moreover, in [27], the IC50 came to 0.045 µM.

These data come from ChEMBL document CHEMBL1949541, “Discovery of 7-arylsulfonyl-1,2,3,4, 4a,9a-hexahydro-benzo[4,5]furo[2,3-c]pyridines: identification of a potent and selective 5-HT₆ receptor antagonist showing activity in rat social recognition test” (Bioorg Med Chem Lett, 2012).
